Test results from patent US12005122B2, “Compounds and methods for diagnosis and treatment of viral infections” (priority 2016, dated 2024).

Legend:
Zika virus [1] = test: Percent infectivity of Zika-infected VERO cells (FIG. 5); format: cell-based; details: FIGS. 4 and 5; 5 μM and 1 μM
Zika virus [2] = test: Zika virus plaque assay on Vero cells; format: cell-based; details: Vero cells infected with Zika virus

dextran 3-[(2-aminoethyl)thio]propyl 17-carboxy-10,13,16-tris(carboxymethyl)-8-oxo-4-thia-7,10,13,16-tetraazaheptadec-1-yl 3-[[2-[[1-imino-2-(D-mannopyranosylthio)ethyl]amino]ethyl]thio]propyl ether complexes [Tilmanocept]
Effect on Zika infection of VERO cells (Zika virus [1]): no effect | Reduction of Zika virus in infected Vero cells (Zika virus [2]): 99.9%
